The structures appear in SMILES notation. In brackets after ≈: the same amount, converted by molar mass. Read-outs that look alike come from different tables or passages of the source. Numbered stars: 1 amine (or outer) side, 2 acyl side, 3 side chain; on linkers, the order of the positions; unused ones are H or OH. Bridge positions count the residues as written; N and C are the ends. Square brackets hold non-standard residues; d marks the D form. Peptide text beside a SMILES is read from it. * marks the point of attachment. Orn(4R-OH,5R-OH) = O=C([C@H](C[C@@H](O)[C@@H](O)N[*:3])N[*:1])[*:2]; Tetradecanoyl(10R,12S-Me2) = CC[C@H](C)C[C@H](C)CCCCCCCCC(=O)*; hTyr(3S-OH,4S-OH) = N[C@H](C(=O)O)[C@H](O)[C@@H](O)c1ccc(O)cc1; Gln(3R-OH) = NC(=O)C[C@@H](O)[C@H](N)C(=O)O; Pro(3S-OH) = O=C(O)[C@H]1NCC[C@@H]1O; Hyp = O=C(O)[C@@H]1C[C@@H](O)CN1

The subject of series [1] is Pneumocystis carinii. Conditions: dexamethasone-immunosuppressed male C3H/Hej mice; 0.5 mg/kg intraperitoneally twice daily for two weeks; lung tissue.
Description: In a representative study ten male C3H/Hej mice, weighing 22-24 gms. each, were immunosuppressed by the addition of dexamethasone to the drinking water (8.0 mg/L) for six weeks to induce the development of P. carinii infections. To enhance the infection the mice were also maintained on a low protein diet. At the beginning of the seventh week the mice were divided into two groups. Both groups continued to receive dexamethasone in the drinking water and low protein diet for the remainder of the study. Mice in Group I were injected intraperitoneally twice daily with 0.5 ml of a 20% DMSO solution as a vehicle control. […] The treatment period lasted two weeks.
At the end of the treatment period (a total of eight weeks immunosuppression) the animals were sacrificed and the lung tissues removed. The tissue was then processed to determine the number of cysts for each animal.
Series [2] is described as follows: Solubility in organic solvents. Type of series: physicochemical. Particulars: methanol, ethanol, dimethylformamide, dimethyl sulfoxide, ethyl acetate and the like.
In series [3] the test system is Candida albicans. As to the kind of experiment: microbe, parasite or virus in culture. As for the experimental part: (§1) In carrying out the assay, Compound I was solubilized in 10 percent dimethyl sulfoxide (DMSO) and diluted to 2560 µg/ml. The compounds were further diluted to 256 µg/ml in YNBD. Then 0.15 ml of the suspension was dispensed to the first row of a 96-well plate (each well containing 0.15 ml of YNDB) resulting in a drug concentration of 128 µg/ml. Two-fold dilutions were then made to obtain final drug concentrations ranging from 128 to 0.06 µg/ml.
(§2) The yeast cultures, maintained on Sabouraud dextrose agar were transferred to YM broth (Difco) and incubated overnight at 35°C with shaking (250 rpm). After incubation, each culture was diluted in sterile water to yield a final concentration of 1-5 x 10⁶ colony forming units (CFU)/ml.
(§3) 96-well microplates were inoculated using a MIC-2000 (Dynotech) which delivers 1.5 µl per well yielding a final inoculum per well of 1.5-7.5 x 10³ cells. The microplates were incubated at 35°C for 24 hours. The minimum inhibitory concentrations (MICs) were recorded as the lowest concentrations of drug showing no visible growth.
(§4) After recording the MIC, the plates were shaken to resuspend the cells. Thereafter, 1.5 µl samples from the wells in the 96-well microplate were transferred to a single well tray containing Sabouraud dextrose agar. The inoculated trays were incubated 24 hours at 28°C and then read. The MFC is defined as the lowest concentration of drug showing no growth or less than 4 colonies per spot.

The test system of series [4] is Candida tropicalis. The series is described as follows: microbe, parasite or virus in culture. Conditions: read-out: Minimum Fungicidal Concentration. As for the experimental part:
as §1, §2, §3, §4

Series [5] relates to Candida parapsilosis. The series is described as follows: microbe, parasite or virus in culture. On the procedure:
as §1, §2, §3, §4

Take `CC[C@H](C)C[C@H](C)CCCCCCCCC(=O)N[C@H]1C[C@@H](O)[C@@H](O)NC(=O)[C@@H]2[C@@H](O)CCN2C(=O)[C@H]([C@H](O)CC(N)=O)NC(=O)[C@H]([C@H](O)[C@@H](O)c2ccc(O)cc2)NC(=O)[C@@H]2C[C@@H](O)CN2C(=O)[C@H]([C@@H](C)O)NC1=O` [Compound I, 1-[4,5-dihydroxy-N²-(10,12-dimethyl-1-oxotetradecyl)-ornithine]-5-(3-hydroxyglutamine)-6-(3-hydroxyproline)echinocandin B] ({Tetradecanoyl(10R,12S-Me2)}-[Orn(4R-OH,5R-OH)]T[Hyp][hTyr(3S-OH,4S-OH)][Gln(3R-OH)][Pro(3S-OH)]; lactam 1-C): the “reduced the number of cysts as compared to the control animals” value in series [1] came to 81%. The solubility entry in series [2] is recorded as “soluble in organic solvents”. For the same compound, the MFC in series [3] (read-out: Minimum Fungicidal Concentration, Candida albicans MY 1028, YNBD medium) is 1 µg/mL (≈ 0.939 µM); in series [3] (read-out: Minimum Fungicidal Concentration, Candida albicans MY 1208, YNBD medium), 0.5 µg/mL (≈ 0.469 µM); in series [3] (read-out: Minimum Fungicidal Concentration, Candida albicans MY 1585, YNBD medium), 0.5 µg/mL (≈ 0.469 µM); in series [3] (read-out: Minimum Fungicidal Concentration, Candida albicans MY 1750, YNBD medium) it was 0.25 µg/mL (≈ 0.235 µM); in series [3] (read-out: Minimum Fungicidal Concentration, Candida albicans MY 1783, YNBD medium) it was 0.5 µg/mL (≈ 0.469 µM); in series [4], 2 µg/mL (≈ 1.88 µM). Also, the MFC in series [5] (Lodderomyces parapsilosis, read-out: Minimum Fungicidal Concentration) stood at 8 µg/mL (≈ 7.51 µM). In series [5] (Candida parapsilosis MY 1010, YNBD medium), the “Minimum Fungicidal Concentration” value turned out to be 8.0 µg/mL.

Source of the values: EP0405997B1, “Antibiotic agent” (Merck & Co., Inc., priority 1989, dated 1991).
